Measured values from ChEMBL document CHEMBL3507680, “University of Dundee, Gates Library screen for HepG2 cell viability”.

Test: Human HepG2 cell viability assay in 384 well format
Type: toxicity, cell-based
Parameters: dose 125 nL, time 70.5 hour; concentration not given beside the values
Settings: HepG2 cells, read-out: Inhibition

COc1ccc(C(C)NC(=O)Cn2ccc(=O)n(C)c2=O)cc1F (centres undefined)
cytotoxicity at 70.5 h: -2.29%

CC(C)N1CCC2(CC1)CC(c1cccnc1)C(=O)N2 (centres undefined)
cytotoxicity at 70.5 h: -10.2%

CCSc1ccc(C(=O)N2CC[C@](C)(O)[C@H](C)C2)s1
cytotoxicity at 70.5 h: -10.1%

O=C1CC2(CCN(CC3CC3)C2)CN1c1ccc2c(c1)OCO2 (centres undefined)
cytotoxicity at 70.5 h: 3.77%

Cc1noc(CN2CCN(CCO)CC2)n1
cytotoxicity at 70.5 h: -3.7%

CN(C)C(=O)N1CCN(Cc2cnn(C)c2)CC2(CNC(=O)C2)C1 (centres undefined)
cytotoxicity at 70.5 h: -7.42%

CN(C)C(=O)CN1C[C@@H]2CC[C@H](C1)N(Cc1c(Cl)cncc1Cl)C2
cytotoxicity at 70.5 h: -9.62%

Cc1nnc(NCC(c2ccco2)N(C)C)c(C#N)c1C (centres undefined)
cytotoxicity at 70.5 h: -4.51%

O=C(CN1CC(n2cccn2)C1)NCCC1=CCCCC1
cytotoxicity at 70.5 h: -6.23%

Cc1ccoc1C(=O)NC1CCN(Cc2cccc3ccccc23)CC1
cytotoxicity at 70.5 h: 1.33%

O=C(N1CCCCC1)N1CCCC(c2ncncc2-c2ccncc2)C1 (centres undefined)
cytotoxicity at 70.5 h: -8.3%

COc1ccc(S(=O)(=O)Nc2cccnc2-n2cncn2)c(C)c1
cytotoxicity at 70.5 h: -8.45%

O=C(NCCCNc1ccc(C(F)(F)F)cn1)c1ccc(F)cc1Br
cytotoxicity at 70.5 h: -6.12%

CN(C)C(=O)CCC[S+]([O-])Cc1ccc(F)c(F)c1 (centres undefined)
cytotoxicity at 70.5 h: 13.1%

Cc1noc([C@H]2CC[C@@H]3[C@@H](CCN3S(C)(=O)=O)O2)n1
cytotoxicity at 70.5 h: 1.24%

CC(C)(C)n1nc(C2CC2)cc1C(=O)NC1CCN(CC(N)=O)CC1
cytotoxicity at 70.5 h: -12.3%

Cc1cc(C)n(CC2CN(CC(=O)NC3CCCCC3)CCO2)n1 (centres undefined)
cytotoxicity at 70.5 h: -9.27%

Cc1noc(C)c1C(=O)N1C[C@@H]2C[C@@H](c3ccncn3)O[C@@H]2C1
cytotoxicity at 70.5 h: -3.05%

O=C(N1CCC(O)(C(F)(F)F)C1)C1(c2cccc(Cl)c2)CC1 (centres undefined)
cytotoxicity at 70.5 h: -9.29%

CNS(=O)(=O)c1cccc(C(C)NCc2nccn2C(C)C)c1 (centres undefined)
cytotoxicity at 70.5 h: 10.8%

CCOCCOC(C)C(=O)Nc1ccc2c(ccn2CC)c1 (centres undefined)
cytotoxicity at 70.5 h: -6.19%

Cc1cc(C)nc(N2CC=C[C@H]2C(=O)NCc2ccc3c(c2)OCO3)n1
cytotoxicity at 70.5 h: -3.34%

CN(CCC(F)(F)F)C(=O)c1nc(S(C)(=O)=O)n2ccccc12
cytotoxicity at 70.5 h: 25.3%

Cc1ccc(-n2cc(C)cn2)c(NC(=O)NC2(C)CCOC2)c1 (centres undefined)
cytotoxicity at 70.5 h: -2.69%

Cn1ncc2c1C(COCC1CC1)CN(S(=O)(=O)C1CC1)C2 (centres undefined)
cytotoxicity at 70.5 h: -4.08%

CC1=Nc2c(c(=O)[nH]n2C(C)C)C(c2ccc3ncccc3c2)S1 (centres undefined)
cytotoxicity at 70.5 h: 0.555%

NC(=O)CN1CCCN(C(=O)Cc2ccc3ccccc3c2)CC1
cytotoxicity at 70.5 h: 33.3%

CCOc1ncccc1NC(=O)c1ccc(C(C)=O)s1
cytotoxicity at 70.5 h: -14.4%

CC(=O)c1ccc(S(=O)(=O)N2CCOC(Cn3ccnc3)C2)cc1 (centres undefined)
cytotoxicity at 70.5 h: -7.46%

CC(=O)N1CC(c2n[nH]c3ncccc23)C1
cytotoxicity at 70.5 h: 28.9%

COCCN(C)C1COC2(CCN(Cc3ccccn3)CC2)C1 (centres undefined)
cytotoxicity at 70.5 h: 11.6%

CC(Cn1ccnc1)NC(=O)C1(c2ccccc2)CC1 (centres undefined)
cytotoxicity at 70.5 h: -10.4%

CN1CCN(CCOc2ccc(NC(=O)c3ccc[nH]3)cc2)CC1
cytotoxicity at 70.5 h: -2.18%

CC(c1nccs1)n1cc(-c2cc(CN3CCCCC3)cs2)nn1 (centres undefined)
cytotoxicity at 70.5 h: -4.83%

CC(=O)NCCCn1ncc2c(C)cccc21
cytotoxicity at 70.5 h: -10.8%

O=C(NCc1ccccc1CO)Nc1ccc2c(c1)CCC2
cytotoxicity at 70.5 h: -1.72%

CSc1ccc(-n2ccnc2-c2cc3n(n2)CCNC3)cc1
cytotoxicity at 70.5 h: 25.5%

CC(=O)N1CCCC(c2ccnc(Nc3cnccn3)n2)C1 (centres undefined)
cytotoxicity at 70.5 h: -7.2%

CN1CCN(C(=O)c2cc3sccc3n2Cc2ccccc2F)CC1
cytotoxicity at 70.5 h: -9.9%

O=C(CN1CCCCC1Cn1cncn1)NCCOc1ccccc1 (centres undefined)
cytotoxicity at 70.5 h: -1.79%

Cn1ccc(C(=O)N2CCC3(CCN3c3ncccn3)C2)n1 (centres undefined)
cytotoxicity at 70.5 h: -1.24%

CCc1nc(CN(C)Cc2ncc(-c3cccs3)o2)cs1
cytotoxicity at 70.5 h: -1.61%

CN(Cc1cnn(C)c1)C(=O)c1ccc(=O)n(Cc2ccccc2)n1
cytotoxicity at 70.5 h: 27.5%

O=C(Nc1ccc(CC(=O)N2CCSCC2)cc1)NC1CC1
cytotoxicity at 70.5 h: 14.5%

O=c1[nH]c(=O)n(CC(O)c2ccccc2Cl)cc1Cl (centres undefined)
cytotoxicity at 70.5 h: -5.98%

CS(=O)(=O)N1CCCC12CCCN(C(=O)c1ccnnc1)C2 (centres undefined)
cytotoxicity at 70.5 h: -11.3%

CCC1=NN2C(=N)/C(=C/c3cccc(Cl)c3)C(=O)N=C2S1
cytotoxicity at 70.5 h: -5.39%

COCCCNC(=O)CN(C)C(=O)c1ccc(OC)cc1O
cytotoxicity at 70.5 h: -5.57%

O=C(NCCN1CCOCC1)c1ccc(OCc2ccccc2)nc1
cytotoxicity at 70.5 h: -1.05%

C=C(C)COc1ccc(C(=O)NCC2CC(CC)=NO2)cc1 (centres undefined)
cytotoxicity at 70.5 h: -15.2%

COc1cc(-c2n[nH]c(CCN)n2)cc(OC)c1OC
cytotoxicity at 70.5 h: 22.8%

CC(C)CN1C[C@@H]2C(=O)N(C)C3(CCN(C(=O)C(C)C)CC3)[C@@H]2C1
cytotoxicity at 70.5 h: -6.33%

Cc1cccnc1C(=O)N1CCCCC1c1[nH]ncc1S(C)(=O)=O (centres undefined)
cytotoxicity at 70.5 h: 1.39%

Cc1cccc(C)c1CNC1(CCO)CCOCC1
cytotoxicity at 70.5 h: -16%

Cn1cc(-c2csc(N3CCOCC3)n2)cn1
cytotoxicity at 70.5 h: -3.47%

Cc1oncc1C(=O)N1CC[C@H]2[C@@H]1CCC(=O)N2c1cccnc1
cytotoxicity at 70.5 h: -14.4%

CCC(=O)NCC(=O)NC(C)c1ccc(OCCC(C)C)cc1 (centres undefined)
cytotoxicity at 70.5 h: -2.78%

CC(C)CNC(=O)c1c(-n2cnnn2)sc2c1CCCC2
cytotoxicity at 70.5 h: -4.4%

O=C(NCCNc1cnccn1)c1scnc1Cl
cytotoxicity at 70.5 h: -8.29%

Cc1nc(C)n(CC2CCCN2CC(=O)Nc2ccncc2)n1 (centres undefined)
cytotoxicity at 70.5 h: -4.71%

COc1ccc(NC(=O)C2OC(c3cccs3)=NN2C(C)=O)cc1OC (centres undefined)
cytotoxicity at 70.5 h: 2.61%

COCCN1CCC(c2nc3ccc(-c4ccccc4)cn3n2)CC1
cytotoxicity at 70.5 h: 1.72%

CC(C)c1ccc(C2CC(=O)Nc3c2cnn3C)cc1 (centres undefined)
cytotoxicity at 70.5 h: -15.6%

O=C(NCC1CCCCO1)c1ccc(-c2ccco2)[nH]c1=O (centres undefined)
cytotoxicity at 70.5 h: -8.49%

O=C(NCc1ccco1)[C@@]12CCO[C@@H]1CCN(c1ncccn1)C2
cytotoxicity at 70.5 h: -2.22%

CNc1cncc(C2CCN(C(=O)c3cnco3)CC2)n1
cytotoxicity at 70.5 h: 9.47%

Cc1cc2ccccc2n1CC(=O)NCC(=O)N1CCOCC1
cytotoxicity at 70.5 h: -13.2%

C[C@]1(O)CN(Cc2ccc(C(=O)O)cc2)CC[C@@H]1Oc1cccc(F)c1
cytotoxicity at 70.5 h: -10.9%

Cc1nc2c(C)cccc2cc1C(=O)N1CCC2(CCN(C)CC2)C1
cytotoxicity at 70.5 h: 3.12%

CC(C)COC(=O)N1CCCN(C(C)c2nc(C(C)C)no2)CC1 (centres undefined)
cytotoxicity at 70.5 h: -3.98%

CC(C)CCc1noc(C[S+]([O-])CC(=O)NCc2ccccc2)n1 (centres undefined)
cytotoxicity at 70.5 h: -1.48%

CCC1CN(CC(=O)NC(C)C)CCO1 (centres undefined)
cytotoxicity at 70.5 h: -10.4%

Cc1nnc(CN(C)C2CCN(c3cccc(-c4cscn4)c3)CC2)o1
cytotoxicity at 70.5 h: -3.22%

Cc1nc(COC[C@H]2CC[C@H]3NCC[C@H]3O2)cs1
cytotoxicity at 70.5 h: -6.2%

CCc1nc(C2CCCN2Cc2ccn(C)c(=O)c2)no1 (centres undefined)
cytotoxicity at 70.5 h: -2.34%

CCC(CNC(=O)c1ccccc1OC)N1CCc2ccccc2C1 (centres undefined)
cytotoxicity at 70.5 h: 7.61%

CCC(NC(=O)c1nn(C)cc1C(=O)O)c1ccc(C)cc1 (centres undefined)
cytotoxicity at 70.5 h: -5.71%

CCN(Cc1cnc(NCc2ccccc2)nc1)C1CCS(=O)(=O)C1 (centres undefined)
cytotoxicity at 70.5 h: -7.52%

COc1ccc(N(c2ccc(C)cc2)c2ccc(C(=O)O)s2)cc1
cytotoxicity at 70.5 h: -0.995%

CCOc1ccc(Cl)c(C(=O)N2CCN(c3ncccn3)CC2)n1
cytotoxicity at 70.5 h: -12.1%

Cc1noc2nc(C3CCN(CC4=CCCOC4)CC3)cc(C(F)F)c12
cytotoxicity at 70.5 h: -7.18%

CC(C)C(=O)N1CCCC(Cc2ccccn2)C1 (centres undefined)
cytotoxicity at 70.5 h: -1.35%

O=C(CN(CC1CCC1)CC(F)(F)F)N1CCCC1
cytotoxicity at 70.5 h: -6.18%

COCCN1CCC12CCN(c1ncccn1)C2 (centres undefined)
cytotoxicity at 70.5 h: -5.32%

CCCNCc1ccc(-c2ccnc3[nH]ccc23)cc1
cytotoxicity at 70.5 h: 29.1%

Cc1cccc(CN2CCN3C(=O)NC[C@H]3C2)n1
cytotoxicity at 70.5 h: -2.26%

COc1nc2c(cc1C(=O)N1CCCOC(Cn3cccn3)C1)CCC2 (centres undefined)
cytotoxicity at 70.5 h: -2.14%

Cc1occc1CNC(=O)C1CCN(C(=O)OC(C)(C)C)C1 (centres undefined)
cytotoxicity at 70.5 h: -0.732%

CC(CO)CSc1ncnc2[nH]ncc12 (centres undefined)
cytotoxicity at 70.5 h: -0.794%

c1cncc(CN2CCCn3nnc(CN4CCCC4)c3C2)c1
cytotoxicity at 70.5 h: -64.2%

O[C@@H]1C[C@@H](c2nc(-c3ccccc3)no2)N(Cc2cccnc2)C1
cytotoxicity at 70.5 h: -2.41%

CC(C)(C)C(=O)NCC(=O)NC1CC(c2cccc(Cl)c2)C1 (centres undefined)
cytotoxicity at 70.5 h: -1.37%

O=C(O)c1c(-c2cccnc2)ncc2c1CCN(Cc1cccnc1)C2
cytotoxicity at 70.5 h: -5.73%

CC(C)C(=O)N1CCC(CNc2nc(C(C)C)nc3c2cnn3C)CC1
cytotoxicity at 70.5 h: -9.27%

COc1ccccc1N1CCN(C(=O)CCc2nncn2C)C(C)C1 (centres undefined)
cytotoxicity at 70.5 h: 17.3%

CNC(=O)C1(N(C)CCc2ccccc2)Cc2ccccc2C1
cytotoxicity at 70.5 h: -1.19%

c1cncc(COCc2cncc3c2CCN(Cc2ccoc2)C3)c1
cytotoxicity at 70.5 h: -9.45%

Cc1nc2c(c(N3CCC(O)(CN4CCCC4)CC3)n1)CCNCC2
cytotoxicity at 70.5 h: -3.88%

CS(=O)(=O)NC[C@]12COC[C@H]1CN(C(=O)c1ccncn1)C2
cytotoxicity at 70.5 h: 15.5%

N#Cc1ccc(CN2CCN(C(=O)c3cc(C4CC4)[nH]n3)CC2)cc1
cytotoxicity at 70.5 h: 0.0729%

COc1c(CNCc2cccnc2N2CCOCC2)c(C)nn1C
cytotoxicity at 70.5 h: 1.9%

Cc1cnn(CC2CCCN2C(=O)c2cccc(CC#N)c2)c1 (centres undefined)
cytotoxicity at 70.5 h: -22%

O=C(Cc1cccc(F)c1F)NS(=O)(=O)c1cncc(Cl)c1
cytotoxicity at 70.5 h: -2.5%

CC1CCN(C)c2ccccc2N1C(=O)c1ccc(=O)n(C)c1 (centres undefined)
cytotoxicity at 70.5 h: -6.14%

Cc1cc(CN(C)Cc2ncc(C(C)(C)C)o2)no1
cytotoxicity at 70.5 h: 18.2%

COCCC(=O)N1CCN(CCN(C)C)c2ncccc2C1
cytotoxicity at 70.5 h: -6.14%

O=C(NCC1CC1)[C@H]1CC[C@@H]2[C@@H](CCN2Cc2nccs2)O1
cytotoxicity at 70.5 h: 1.44%

COc1ccccc1C1CNC(=O)c2nc(-c3c(C)n[nH]c3C)[nH]c2C1 (centres undefined)
cytotoxicity at 70.5 h: -4.74%

CC(C)Cn1cnc(S(=O)(=O)Nc2cccnc2-n2cccn2)c1
cytotoxicity at 70.5 h: -1.98%

Cc1ncc(CN(C)CC(O)c2ccc(Br)cc2)s1 (centres undefined)
cytotoxicity at 70.5 h: -12%

Cc1nc(CN(C)C2CCN(Cc3c(C)noc3C)C2)no1 (centres undefined)
cytotoxicity at 70.5 h: -8.91%

Clc1ccc(C2(CNC3=NCCN3)CCCC2)cc1
cytotoxicity at 70.5 h: 8.18%

CNCCCNC1CCN(c2ccc(-n3ccnc3)cc2)CC1
cytotoxicity at 70.5 h: -7.26%

CC(C(=O)NCc1ccc(N2CCCCC2)nc1)S(C)(=O)=O (centres undefined)
cytotoxicity at 70.5 h: -5.42%
